Assay results reported in publication PMC11371785 (Frontiers in Pharmacology, 2024).
Marks after values point to notes of the source that are not given here.

What was measured:
[1] = Weight of experimental animals for toxicity test; conditions: SEM
Experimental: (§1) The negative control group (group a) was treated with 0.2 mL of the vehicle, while the positive control group (group g) was also treated with the 20 mg/kg dosage of cyclophosphamide. […] The blood samples were collected for haematological analysis, while the liver and kidney were also collected for histopathological analysis and fixed in 10% formalin.

[2] = system: bone marrow cells of mice; experiment: Micronucleus (MN) assay; conditions: SEM
Experimental: as §1
The animals used for the subacute toxicity test were also used for the MN assay because the treatment follows the same procedure, but the positive control, cyclophosphamide (group g) for MN, is a single-dose treatment that was given intraperitoneally. The MN assay was carried out as described by Jain and Pandey ([Jain and Pandey, 2019]), four animals were sacrificed from each group by cervical dislocation, and both femurs were removed. The epiphyses were removed from the femur, and the bone marrow was flushed with fetal bovine serum (FBS) into Eppendorf tubes (1.5 mL). After a light tap to ensure appropriate cell dispersion, it was centrifuged at 2,000 rpm for 5 minutes. The pellet was suspended in another 1 mL of FBS in the Eppendorf tube, thoroughly mixed using a micropipette, and centrifuged once more at the same rate after the supernatant was discarded. Once more, the supernatant was removed, and the pellet was mixed with 0.5 mL of FBS before a few drops of the viscous mixture were dropped on a clean, oil-free slide. This drop was spread on the slide and allowed to air dry.
The slides were stained with 0.4% May-Grunewald stain for 3-4 min and were immediately transferred into another coupling jar containing May-Grunewald and distilled water (ratio 1:1) and allowed to stain for another 3-4 min. The slides were rinsed in distilled water and allowed to dry completely. Then, it was also stained in 5% Giemsa stain for 5 min, rinsed in distilled water, and allowed to dry completely. A minimum of 1,000 cells from each mouse were examined for micronuclei in polychromatic erythrocytes (MNPCE) using a light microscope at a magnification of 1,000X (oil immersion). The relative size of the erythrocytes and the difference in staining between PCEs (bluish-purple) and normochromatic erythrocytes (NCEs, pink-orange) are used to distinguish between them.

liver and kidney of mice = experiment: Subacute toxicity test: liver and kidney histopathology; conditions: 20 mg/kg, positive control (group g)
Experimental: as §1
The tissues were sliced into small pieces not more than 4 mm thick and then submerged in 10% formal saline for 24 h to fix, according to the protocols of [Avwioro et al., (2010)] for histopathology investigations. The tissue processing was carried out automatically using an automatic tissue processor (Leica TP 1020) by letting the tissues pass through several reagents: 10% formal saline was used in Stations 1 and 2, and alcohol in Stations 3 through 7 was used to dehydrate the tissues. The tissues were then moved into Stations 10 to 12, which contained wax for infiltration or impregnation, after passing through Stations 8 and 9, which contained xylene for the purpose of […]. Tissues stayed in each station for 1 hour during the 12-h duration of these operations. The tissues were then covered with molten paraffin wax, allowed to cool on ice, and then sectioned at a 4-micrometer interval. These parts were picked up using clean, labeled slides and floated in a water bath set at 55°C. […]

[3] = system: Plasmodium berghei infected mice; experiment: Body weight, rectal temperature and packed cell volume in the suppressive test; format: in vivo, Mus musculus; conditions: SEM; for Weight (g) initial / Temperature (°C) initial: before the experiment; for Weight (g) initial / Temperature (°C) initial / Weight (g) final / Temperature (°C) final: n = 5; for PCV (%) DAY 0: first day of infection; for Temperature (°C) initial / Temperature (°C) final: rectal; for Percentage change in PCV (%) DAY 0 / Percentage change in temperature (%) / Weight (g) final / PCV (%) DAY 4 / Percentage change in weight (%) / Temperature (°C) final / PCV (%) DAY 9 / Percentage change in PCV (%) DAY 9: 4 days; for Weight (g) final / Temperature (°C) final: after the experiment; for PCV (%) DAY 4: fifth day after infection; for Percentage change in weight (%): infected mice; for PCV (%) DAY 9 / Percentage change in PCV (%) DAY 9: tenth day after infection
Experimental: (§2) Twenty-five (25) albino mice (weighing 22 ± 2 g) were randomly divided into five (5) groups of five animals per group (n = 5). Parasitized blood was obtained from infected donor mouse with rising parasitaemia (≥ 20%) by cardiac puncture and the infected blood was diluted with phosphate saline glucose buffer (PSG-mouse) to attain an estimate of 5 × 10^7 red blood cells per ml. Then, 0.2 mL of inoculum containing 1 × 10^7 infected RBCs was injected into the abdominal cavity of experimental animals by intraperitoneal (ip) injection.
(§3) All drugs were administered orally for 4 days.
(§4) The chemo-suppressive effect of HA in mice infected with P. berghei was assessed using Peter’s 4-day suppressive test. The mice were infected with the malaria parasite inoculum (1 × 10^7 P.berghei ANKA) on the first day of the experiment (D0) and treated as indicated in the section above on Animal Grouping and Drug Administration after 2 h post-infection. The treatment continues for another three consecutive days. Each mouse’s parasitaemia level was assessed 96 h after infection (D4). Animals in each group had their PCV, rectal temperature, and body weight measured both before and after the experiment.
Blood samples were taken from each mouse’s tail using heparinized capillary tubes, sealed, and then put into a micro haematocrit centrifuge to calculate the packed cell volume of the blood. After being centrifuged for 5 min at 12,000 rpm, the blood samples’ PCV was calculated using the following formula: Packed Cell Volume=volume of erythrocyes in a given volume of blood/total volume of blood×100
The body weight and rectal temperature of each mouse were also determined using a sensitive digital weighing balance and rectal thermometer, respectively.

Plasmodium berghei ANKA [4] = experiment: Mean survival time of P. berghei-infected mice; format: in vivo; conditions: 4 days, monitored 30 days, n = 5, ±SEM
Experimental: as §2, §3
The survival rate was monitored from the first day of the treatment to 30 days. Each mouse’s mortality was monitored and recorded in days. The mean survival time (MST) of mice in each group was determined, as shown below. MST=sum of survival time of all mice in a group in days/total number of mice in a group

Plasmodium berghei ANKA [5] = experiment: Peter's 4-day suppressive test; format: in vivo; conditions: 4 days, D4; for Suppressive parasitemia (%): n = 5, ±SEM
Experimental: as §2, §3, §4
Parasitaemia was determined by counting the number of infected RBCs (minimum of four fields per slide) using a light microscope with an objective lens magnification power of 1,000x. Percentage parasitaemia and percentage chemo-suppression were calculated using the modified Peters and Robinson formula ([Nyandwaro et al., 2020]): % parasitemia=number of parasitized RBCs/total number of RBC count×100 % chemo−suppression=% parasitemia in negative control− % parasitemia in study group/% parasitemia in negative control×100

[6] = 20 mg/kg/bwt single dose intraperitoneally

O=P1(N(CCCl)CCCl)NCCCO1 (stereo not shown) [CYP, Cyclophosphamide]
Weight (g) final ([1]; 20 mg/kg (positive control), n = 5): 24.43 ± 0.25 g
Percentage change in weight (%) ([1]; 20 mg/kg (positive control), toxicity test): −0.50 ± 0.34%
Weight (g) initial ([1]; 20 mg/kg group (positive control), toxicity test, n = 5): 24.53 ± 0.27 g
MnNCE (micronucleated normochromatic erythrocytes) [2, 6]: 100.9 ± 11.99
MnPCE (micronucleated polychromatic erythrocytes) [2, 6]: 225.9 ± 8.84
Others (other abnormalities) [2, 6]: 119.2 ± 19.59
PCE: NCE (polychromatic erythrocytes/normochromatic erythrocytes ratio) [2, 6]: 0.51 ± 0.04
Kidney histological presentation (liver and kidney of mice): normal architecture
Liver histological presentation (liver and kidney of mice): normal architecture

CCCCCCCCCCCCCCCC(=O)O [HA, n-Hexadecanoic acid]
MnNCE (micronucleated normochromatic erythrocytes) ([2]; 2 mg/kg oral, 14 days): 3.42 ± 0.30
MnPCE (micronucleated polychromatic erythrocytes) ([2]; 2 mg/kg oral, 14 days): 6.25 ± 0.88
MnNCE (micronucleated normochromatic erythrocytes) ([2]; 5 mg/kg oral, 14 days): 3.17 ± 0.74
MnPCE (micronucleated polychromatic erythrocytes) ([2]; 5 mg/kg oral, 14 days): 9.08 ± 1.30
MnNCE (micronucleated normochromatic erythrocytes) ([2]; 10 mg/kg oral, 14 days): 6.67 ± 2.25
MnPCE (micronucleated polychromatic erythrocytes) ([2]; 10 mg/kg oral, 14 days): 11.58 ± 2.00
MnNCE (micronucleated normochromatic erythrocytes) ([2]; 50 mg/kg oral, 14 days): 7.19 ± 0.98
MnPCE (micronucleated polychromatic erythrocytes) ([2]; 50 mg/kg oral, 14 days): 18.86 ± 1.74
MnNCE (micronucleated normochromatic erythrocytes) ([2]; 100 mg/kg oral, 14 days): 8.00 ± 0.84
MnPCE (micronucleated polychromatic erythrocytes) ([2]; 100 mg/kg oral, 14 days): 23.11 ± 0.58
Weight (g) initial ([3]; 10 mg/kg group): 22.88 ± 0.47 g
PCV (%) DAY 0 ([3]; 10 mg/kg group): 42.63 ± 1.25%
Temperature (°C) initial ([3]; 10 mg/kg group): 32.26 ± 0.33 °C
Percentage change in PCV (%) DAY 0 ([3]; 10 mg/kg oral): 6.00 ± 13.99%
Percentage change in temperature (%) ([3]; 10 mg/kg oral): −6.08 ± 1.60%
Weight (g) final ([3]; 10 mg/kg oral): 19.24 ± 0.81 g
PCV (%) DAY 4 ([3]; 10 mg/kg oral): 43.75 ± 5.11%
Percentage change in weight (%) ([3]; 10 mg/kg oral): −15.99 ± 2.63%
Temperature (°C) final ([3]; 10 mg/kg oral): 30.28 ± 0.24 °C
PCV (%) DAY 9 ([3]; 10 mg/kg oral): 23.12 ± 0.46%
Percentage change in PCV (%) DAY 9 ([3]; 10 mg/kg oral): −45.54 ± 3.26%
Weight (g) initial ([3]; 50 mg/kg group): 24.48 ± 0.71 g
PCV (%) DAY 0 ([3]; 50 mg/kg group): 46.60 ± 2.88%
Temperature (°C) initial ([3]; 50 mg/kg group): 32.20 ± 0.32 °C
Percentage change in PCV (%) DAY 0 ([3]; 50 mg/kg oral): 3.54 ± 3.53%
Percentage change in temperature (%) ([3]; 50 mg/kg oral): −6.56 ± 1.17%
Weight (g) final ([3]; 50 mg/kg oral): 22.94 ± 1.24 g
PCV (%) DAY 4 ([3]; 50 mg/kg oral): 48.20 ± 3.14%
Percentage change in weight (%) ([3]; 50 mg/kg oral): −6.46 ± 2.75%
Temperature (°C) final ([3]; 50 mg/kg oral): 30.08 ± 0.37 °C
PCV (%) DAY 9 ([3]; 50 mg/kg oral): 22.93 ± 4.57%
Percentage change in PCV (%) DAY 9 ([3]; 50 mg/kg oral): −51.35 ± 8.51%
Weight (g) initial ([3]; 100 mg/kg group): 22.19 ± 0.40 g
PCV (%) DAY 0 ([3]; 100 mg/kg group): 40.94 ± 2.51%
Temperature (°C) initial ([3]; 100 mg/kg group): 32.20 ± 0.06 °C
Percentage change in PCV (%) DAY 0 ([3]; 100 mg/kg oral): 5.03 ± 2.78%
Percentage change in temperature (%) ([3]; 100 mg/kg oral): −6.39 ± 1.59%
Weight (g) final ([3]; 100 mg/kg oral): 19.99 ± 0.31 g
PCV (%) DAY 4 ([3]; 100 mg/kg oral): 43.00 ± 5.03%
Percentage change in weight (%) ([3]; 100 mg/kg oral): −9.77 ± 2.56%
Temperature (°C) final ([3]; 100 mg/kg oral): 30.14 ± 0.46 °C
PCV (%) DAY 9 ([3]; 100 mg/kg oral): 25.42 ± 12.08%
Percentage change in PCV (%) DAY 9 ([3]; 100 mg/kg oral): −39.10 ± 10.67%
MST (days) (Plasmodium berghei ANKA [4]; 10 mg/kg oral): 15.60 ± 2.62 ^d days
MST (days) (Plasmodium berghei ANKA [4]; 50 mg/kg oral): 9.20 ± 1.16 ^d days
MST (days) (Plasmodium berghei ANKA [4]; 100 mg/kg oral): 11.40 ± 1.6 ^d days
Percentage chemosuppression (%) (Plasmodium berghei ANKA [5]; 10 mg/kg oral): 71.58%
Suppressive parasitemia (%) (Plasmodium berghei ANKA [5]; 10 mg/kg oral): 1.89 ± 0.30^ab %
Percentage chemosuppression (%) (Plasmodium berghei ANKA [5]; 50 mg/kg oral): 83.80%
Suppressive parasitemia (%) (Plasmodium berghei ANKA [5]; 50 mg/kg oral): 1.08 ± 0.29 ^a %
Percentage chemosuppression (%) (Plasmodium berghei ANKA [5]; 100 mg/kg oral): 89.74%
Suppressive parasitemia (%) (Plasmodium berghei ANKA [5]; 100 mg/kg oral): 0.68 ± 0.18 ^a %
